Where two headings read alike, the source gives them in different places.
Tested on: SARS-CoV-2, USA-WA1/2020 strain
Assay type: cell-based
Conditions: tested conc. 50%; for LRV (log reduction value): compared to the virus control; for Virus titer: lower limit of detection 0.67

`CCO` [Ethanol] was tested, and the “LRV (log reduction value)” value (incubation time 15 seconds) was over 4.0, the Virus titer (incubation time 15 seconds) was <0.67 Log10 CCID50 of virus per 0.1 mL and the “LRV (log reduction value)” value (incubation time 30 seconds) was over 3.83. The Virus titer (incubation time 30 seconds) was <0.67 Log10 CCID50 of virus per 0.1 mL, the “LRV (log reduction value)” value (incubation time 60 seconds) was over 4.0 and the Virus titer (incubation time 60 seconds) was <0.67 Log10 CCID50 of virus per 0.1 mL. The “LRV (log reduction value)” value (incubation time 5 minutes) was over 3.83 and the Virus titer (incubation time 5 minutes) was <0.67 Log10 CCID50 of virus per 0.1 mL.

Reference: patent US20220387479A1, “NOVEL POVIDONE-IODINE PHARMACEUTICAL PREPARATION AND USES THEREOF” (priority 2021, published 2022)
